According to patent publication US7649001B2:
Where a chain is given by its changes, count along the chain named.

Key:
[1] = target: T1, LNCaP type mutant androgen receptor (AR) (Homo sapiens, UniProt P10275, T878A); experiment: AR-binding inhibition test (LNCaP type); details: read-out: Inhibition rate (%) at 100 nM LNCaP type
T1 sequence (P10275 1-920 T878A): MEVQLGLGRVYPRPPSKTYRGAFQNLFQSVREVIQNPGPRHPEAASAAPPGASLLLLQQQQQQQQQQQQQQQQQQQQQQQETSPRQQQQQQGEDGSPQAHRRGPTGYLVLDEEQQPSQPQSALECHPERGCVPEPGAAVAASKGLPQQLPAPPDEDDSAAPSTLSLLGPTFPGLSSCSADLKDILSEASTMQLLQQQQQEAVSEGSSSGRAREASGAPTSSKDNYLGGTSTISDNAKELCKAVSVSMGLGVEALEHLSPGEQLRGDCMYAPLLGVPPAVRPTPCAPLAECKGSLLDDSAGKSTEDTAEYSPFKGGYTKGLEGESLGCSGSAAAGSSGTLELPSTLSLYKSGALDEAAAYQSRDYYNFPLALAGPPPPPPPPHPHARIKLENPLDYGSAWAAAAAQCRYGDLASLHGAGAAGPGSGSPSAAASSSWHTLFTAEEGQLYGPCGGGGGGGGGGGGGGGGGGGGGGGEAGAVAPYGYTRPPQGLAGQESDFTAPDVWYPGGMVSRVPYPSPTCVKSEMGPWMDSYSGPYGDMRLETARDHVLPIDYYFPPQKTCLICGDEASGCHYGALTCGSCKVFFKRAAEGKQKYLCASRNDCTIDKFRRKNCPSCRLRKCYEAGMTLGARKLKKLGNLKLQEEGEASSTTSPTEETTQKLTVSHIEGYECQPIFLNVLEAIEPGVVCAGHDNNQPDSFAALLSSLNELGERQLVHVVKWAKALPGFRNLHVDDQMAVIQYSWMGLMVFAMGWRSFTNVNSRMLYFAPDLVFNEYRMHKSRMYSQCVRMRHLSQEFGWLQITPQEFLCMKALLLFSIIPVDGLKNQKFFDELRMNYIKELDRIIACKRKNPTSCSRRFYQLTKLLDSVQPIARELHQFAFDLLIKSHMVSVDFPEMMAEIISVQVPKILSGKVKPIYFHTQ

[2] = test system: Human prostate cancer cell strain LNCaP-FGC; experiment: cells; format: cell-based; details: 72 h, read-out: Promotion rate (%) on PSA production at 100 nM
[3] = target: T2, wild type androgen receptor (AR) (Homo sapiens, UniProt P10275); experiment: AR-binding inhibition test (wild type); details: read-out: Inhibition rate (%) at 100 nM Wild type
T2 sequence (P10275 1-920): T1 sequence (P10275 1-920 T878A) with A878T

Row | SMILES | melting point [°C] | inhibition at 0.1 µM [1] [%] | activation at 0.1 µM [2] [%] | inhibition at 0.1 µM [3] [%]
1 | C[C@H]1[C@H](O)CCN1c1ccc(C#N)c2sccc12 [Compound 115, 4-[(2S,3R)-3-hydroxy-2-methyl-1-pyrrolidinyl]-1-benzothiophene-7-carbonitrile] | 145 to 146 | 97 | 76 | 93
2 | N#Cc1ccc(N2CCC(CCO)C2)c2ccsc12 (stereo not shown) [Compound 101, 4-[3-(2-hydroxyethyl)-1-pyrrolidinyl]-1-benzothiophene-7-carbonitrile] | 109 to 111 | 97 | 86 | 93
3 | C[C@H]1C[C@@H](O)CN1c1ccc(C#N)c2sccc12 [Compound 109, 4-[(2S,4R)-4-hydroxy-2-methyl-1-pyrrolidinyl]-1-benzothiophene-7-carbonitrile] | 102 to 103 | 99 | 86 | 98
4 | N#Cc1ccc(N2CCC(CO)CC2)c2ccccc12 [Compound 30, 4-[4-(hydroxymethyl)-1-piperidinyl]-1-naphthonitrile] | 135 to 136 | 113 | 100 | 105
5 | N#Cc1ccc(N2CCC(CCO)CC2)c2ccccc12 [Compound 78, 4-[4-(2-hydroxyethyl)-1-piperidinyl]-1-naphthonitrile] | 128 to 129 | 97 | 89 | 92
6 | N#Cc1ccc(N2CCC(F)C2)c2ccsc12 (stereo not shown) [Compound 100, 4-(3-fluoro-1-pyrrolidinyl)-1-benzothiophene-7-carbonitrile] | 151 to 152 | 92 | 82 | 97
7 | N#Cc1ccc(N2CCSCC2)c2ccccc12 [Compound 8, 4-(4-thiomorpholinyl)-1-naphthonitrile] | 130 to 131 | 96 | 71 | 92
